Results published in ChEMBL document CHEMBL1201862, “PubChem BioAssay data set” (2004).
The source made the active and inactive calls.

How the values were obtained:
[1] = target: Voltage-dependent T-type calcium channel subunit alpha-1H (Homo sapiens, UniProt O95180); assay type: functional;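 further: channel activity triggered by adding a high calcium stimulation buffer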
Nonstructural protein 1 = Nonstructural protein 1 (Influenza A virus, UniProt Q194T2); assay type: functional, Influenza A virus (A/California/07/2009(H1N1))
[2] = target: T1, Short transient receptor potential channel 4 (Mus musculus, UniProt Q9QUQ5); experiment: block of DAMGO-driven TRPC4 calcium entry – cell-based, HEK293 TRPC4/mu-opioid, Fluo-4 calcium, dose response (AID 434942); assay type: functional;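 further: potency of inhibitors blocking the TRPC4 calcium response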
T1 sequence (Q9QUQ5 whole entry): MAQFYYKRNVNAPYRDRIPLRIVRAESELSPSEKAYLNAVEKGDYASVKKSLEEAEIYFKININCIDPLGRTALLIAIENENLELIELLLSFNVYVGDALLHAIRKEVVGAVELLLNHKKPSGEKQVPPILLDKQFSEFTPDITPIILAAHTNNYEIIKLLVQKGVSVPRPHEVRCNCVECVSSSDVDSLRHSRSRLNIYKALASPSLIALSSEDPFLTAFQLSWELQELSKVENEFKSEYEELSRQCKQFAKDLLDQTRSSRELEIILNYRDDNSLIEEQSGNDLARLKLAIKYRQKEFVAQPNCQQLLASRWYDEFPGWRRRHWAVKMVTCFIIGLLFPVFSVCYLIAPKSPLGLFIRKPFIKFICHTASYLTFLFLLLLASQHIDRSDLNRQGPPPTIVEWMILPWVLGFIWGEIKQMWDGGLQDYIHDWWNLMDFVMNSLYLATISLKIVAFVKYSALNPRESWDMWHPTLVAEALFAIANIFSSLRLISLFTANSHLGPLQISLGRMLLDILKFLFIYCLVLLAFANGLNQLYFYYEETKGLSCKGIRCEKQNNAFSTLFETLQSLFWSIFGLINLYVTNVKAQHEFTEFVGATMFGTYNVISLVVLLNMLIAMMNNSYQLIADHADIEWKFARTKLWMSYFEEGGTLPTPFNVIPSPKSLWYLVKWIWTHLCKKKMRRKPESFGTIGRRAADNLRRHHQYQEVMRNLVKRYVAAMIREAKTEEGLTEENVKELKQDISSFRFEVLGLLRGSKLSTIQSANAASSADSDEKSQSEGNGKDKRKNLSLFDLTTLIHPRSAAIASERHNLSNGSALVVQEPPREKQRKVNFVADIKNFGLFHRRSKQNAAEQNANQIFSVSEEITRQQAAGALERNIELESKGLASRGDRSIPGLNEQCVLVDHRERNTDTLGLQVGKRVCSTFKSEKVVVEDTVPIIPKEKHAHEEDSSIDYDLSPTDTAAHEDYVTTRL

[3] = viability of PTEN-deleted HCT116 cells – cell-based, HCT116 PTEN knockout, dose response (AID 1047); assay type: functional;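 further: HCT116 colon tumor cells with PTEN knocked out; cells exposed to compound for 60 hours before readout; potency for loss of cell viability measured by luminescence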
[4] = target: T2, RNA-binding protein pos-1 (Caenorhabditis elegans, UniProt G5EF15); experiment: disruptors of C. elegans POS-1 RNA interaction – biochemical, fluorescence polarization, dose response (AID 1964);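 further: purified POS-1 fused to maltose binding protein made in E. coli; potency of compounds blocking POS-1 binding to fluorescent RNA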
T2 sequence (G5EF15 whole entry): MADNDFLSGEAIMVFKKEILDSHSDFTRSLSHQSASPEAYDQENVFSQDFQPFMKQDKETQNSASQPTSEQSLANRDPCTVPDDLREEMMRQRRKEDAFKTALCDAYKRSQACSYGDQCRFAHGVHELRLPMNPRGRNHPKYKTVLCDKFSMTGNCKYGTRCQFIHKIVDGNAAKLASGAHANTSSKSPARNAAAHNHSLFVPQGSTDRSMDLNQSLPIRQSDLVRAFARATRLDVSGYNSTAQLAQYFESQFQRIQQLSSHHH

[5] = viability of HCT116 lacking mutant beta-catenin – cell-based, human colon tumor, dose response (AID 1045); assay type: functional;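 further: HCT116 colon tumor cells with beta catenin knocked out; cells exposed to compound for 60 hours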
[6] = target: T3, Zinc finger protein mex-5 (Caenorhabditis elegans, UniProt Q9XUB2); experiment: potency of MEX-5 RNA-binding blockers – biochemical, C. elegans, fluorescence polarization, dose response (AID 1960)
T3 sequence (Q9XUB2 whole entry): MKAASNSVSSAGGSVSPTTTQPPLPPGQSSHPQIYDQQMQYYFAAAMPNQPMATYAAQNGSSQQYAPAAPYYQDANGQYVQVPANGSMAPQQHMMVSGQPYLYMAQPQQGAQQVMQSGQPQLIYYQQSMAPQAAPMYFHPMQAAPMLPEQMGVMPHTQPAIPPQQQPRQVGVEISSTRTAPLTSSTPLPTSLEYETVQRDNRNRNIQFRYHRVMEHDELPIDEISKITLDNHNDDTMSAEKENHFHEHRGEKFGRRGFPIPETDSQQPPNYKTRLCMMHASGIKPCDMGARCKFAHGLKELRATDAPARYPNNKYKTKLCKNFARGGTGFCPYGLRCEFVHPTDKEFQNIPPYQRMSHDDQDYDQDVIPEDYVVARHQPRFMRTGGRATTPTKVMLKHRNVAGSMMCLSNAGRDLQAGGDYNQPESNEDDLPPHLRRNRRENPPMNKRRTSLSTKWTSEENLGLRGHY

[7] = target: G-protein coupled receptor 35 (Homo sapiens, UniProt Q9HC97); experiment: inhibition of zaprinast-stimulated GPR35 beta-arrestin translocation – imaging, U2OS, beta-arrestin-GFP, zaprinast agonist, primary screen (AID 2058); assay type: functional;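 further: antagonist potency meaning inhibition of agonist-induced arrestin redistribution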
[8] = target: T1, Short transient receptor potential channel 4; experiment: calcium entry via TRPC4 opening agents – cell-based, HEK293 TRPC4/mu-opioid, Fluo-4 calcium, dose response (AID 434937); assay type: functional
Hexokinase = target: T4, Hexokinase (Trypanosoma brucei, UniProt Q38C41); experiment: Confirmation assay for inhibitors of Trypanosoma brucei hexokinase 1-Analogue-first series. [Related pubchem assays (depositor defined):AID1430, AID1632, AID2516, AID2560, AID2579, AID2600, AID449725, AID492951]; assay type: functional
T4 sequence (Q38C41 whole entry): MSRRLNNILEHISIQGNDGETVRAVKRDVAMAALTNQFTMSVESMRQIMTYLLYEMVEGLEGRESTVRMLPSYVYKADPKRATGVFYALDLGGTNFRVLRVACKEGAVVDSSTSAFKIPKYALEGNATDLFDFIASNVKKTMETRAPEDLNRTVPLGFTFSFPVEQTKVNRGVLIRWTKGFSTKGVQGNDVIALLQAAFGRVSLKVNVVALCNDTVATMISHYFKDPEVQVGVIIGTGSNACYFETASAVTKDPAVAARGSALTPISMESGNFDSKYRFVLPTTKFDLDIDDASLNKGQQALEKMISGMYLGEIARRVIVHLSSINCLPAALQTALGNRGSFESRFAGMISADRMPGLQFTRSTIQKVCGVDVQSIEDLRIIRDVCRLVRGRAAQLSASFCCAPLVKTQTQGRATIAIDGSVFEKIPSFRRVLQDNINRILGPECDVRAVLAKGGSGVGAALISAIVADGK

[9] = target: T5, Endoribonuclease toxin MazF (Escherichia coli K-12, UniProt P0AE70); experiment: activation of MazEF endoribonuclease cleavage – biochemical, fluorescence, single-stranded RNA substrate, uHTS hits, dose response (AID 588481); assay type: functional
T5 sequence (P0AE70 whole entry): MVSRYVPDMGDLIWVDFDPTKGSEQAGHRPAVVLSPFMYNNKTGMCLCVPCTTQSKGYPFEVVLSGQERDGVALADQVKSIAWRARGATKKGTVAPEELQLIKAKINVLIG

[10] = target: T6, Corticotropin-releasing factor receptor 2/Corticotropin-releasing factor-binding protein (Homo sapiens, UniProt P24387+Q13324); experiment: activators of CRF receptor 2 with binding protein – uHTS hits, confirmation (AID 602473); assay type: functional; details: read-out: EC50_Mean
T6 sequence (Q13324 whole entry): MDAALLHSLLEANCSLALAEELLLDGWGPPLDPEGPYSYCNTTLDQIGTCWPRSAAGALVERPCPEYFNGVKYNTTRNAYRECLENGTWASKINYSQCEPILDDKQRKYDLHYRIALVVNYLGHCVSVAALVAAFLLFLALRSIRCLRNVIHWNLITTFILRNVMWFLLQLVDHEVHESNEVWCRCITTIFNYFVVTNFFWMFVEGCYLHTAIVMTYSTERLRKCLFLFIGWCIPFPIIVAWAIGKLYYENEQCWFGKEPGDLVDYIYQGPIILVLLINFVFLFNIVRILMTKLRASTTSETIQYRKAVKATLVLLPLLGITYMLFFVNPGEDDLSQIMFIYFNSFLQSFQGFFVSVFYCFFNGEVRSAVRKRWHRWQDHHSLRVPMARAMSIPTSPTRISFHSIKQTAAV
T6 sequence (P24387 whole entry): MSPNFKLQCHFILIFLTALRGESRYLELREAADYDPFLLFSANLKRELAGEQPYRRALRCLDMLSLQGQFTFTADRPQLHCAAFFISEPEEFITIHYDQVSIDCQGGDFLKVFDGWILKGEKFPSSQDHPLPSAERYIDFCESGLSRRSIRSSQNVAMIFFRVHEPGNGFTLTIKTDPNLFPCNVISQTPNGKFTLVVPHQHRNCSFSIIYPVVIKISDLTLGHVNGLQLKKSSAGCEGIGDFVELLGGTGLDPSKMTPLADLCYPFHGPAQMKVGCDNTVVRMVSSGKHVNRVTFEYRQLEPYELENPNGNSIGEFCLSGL

[11] = target: T5, Endoribonuclease toxin MazF; experiment: substrate-only fluorescence increase artefacts – biochemical, single-stranded RNase substrate, counter-screen for MazEF activator project, dose response (AID 588502); assay type: functional

Voltage-dependent T-type calcium channel subunit alpha-1H, sequence (O95180 whole entry): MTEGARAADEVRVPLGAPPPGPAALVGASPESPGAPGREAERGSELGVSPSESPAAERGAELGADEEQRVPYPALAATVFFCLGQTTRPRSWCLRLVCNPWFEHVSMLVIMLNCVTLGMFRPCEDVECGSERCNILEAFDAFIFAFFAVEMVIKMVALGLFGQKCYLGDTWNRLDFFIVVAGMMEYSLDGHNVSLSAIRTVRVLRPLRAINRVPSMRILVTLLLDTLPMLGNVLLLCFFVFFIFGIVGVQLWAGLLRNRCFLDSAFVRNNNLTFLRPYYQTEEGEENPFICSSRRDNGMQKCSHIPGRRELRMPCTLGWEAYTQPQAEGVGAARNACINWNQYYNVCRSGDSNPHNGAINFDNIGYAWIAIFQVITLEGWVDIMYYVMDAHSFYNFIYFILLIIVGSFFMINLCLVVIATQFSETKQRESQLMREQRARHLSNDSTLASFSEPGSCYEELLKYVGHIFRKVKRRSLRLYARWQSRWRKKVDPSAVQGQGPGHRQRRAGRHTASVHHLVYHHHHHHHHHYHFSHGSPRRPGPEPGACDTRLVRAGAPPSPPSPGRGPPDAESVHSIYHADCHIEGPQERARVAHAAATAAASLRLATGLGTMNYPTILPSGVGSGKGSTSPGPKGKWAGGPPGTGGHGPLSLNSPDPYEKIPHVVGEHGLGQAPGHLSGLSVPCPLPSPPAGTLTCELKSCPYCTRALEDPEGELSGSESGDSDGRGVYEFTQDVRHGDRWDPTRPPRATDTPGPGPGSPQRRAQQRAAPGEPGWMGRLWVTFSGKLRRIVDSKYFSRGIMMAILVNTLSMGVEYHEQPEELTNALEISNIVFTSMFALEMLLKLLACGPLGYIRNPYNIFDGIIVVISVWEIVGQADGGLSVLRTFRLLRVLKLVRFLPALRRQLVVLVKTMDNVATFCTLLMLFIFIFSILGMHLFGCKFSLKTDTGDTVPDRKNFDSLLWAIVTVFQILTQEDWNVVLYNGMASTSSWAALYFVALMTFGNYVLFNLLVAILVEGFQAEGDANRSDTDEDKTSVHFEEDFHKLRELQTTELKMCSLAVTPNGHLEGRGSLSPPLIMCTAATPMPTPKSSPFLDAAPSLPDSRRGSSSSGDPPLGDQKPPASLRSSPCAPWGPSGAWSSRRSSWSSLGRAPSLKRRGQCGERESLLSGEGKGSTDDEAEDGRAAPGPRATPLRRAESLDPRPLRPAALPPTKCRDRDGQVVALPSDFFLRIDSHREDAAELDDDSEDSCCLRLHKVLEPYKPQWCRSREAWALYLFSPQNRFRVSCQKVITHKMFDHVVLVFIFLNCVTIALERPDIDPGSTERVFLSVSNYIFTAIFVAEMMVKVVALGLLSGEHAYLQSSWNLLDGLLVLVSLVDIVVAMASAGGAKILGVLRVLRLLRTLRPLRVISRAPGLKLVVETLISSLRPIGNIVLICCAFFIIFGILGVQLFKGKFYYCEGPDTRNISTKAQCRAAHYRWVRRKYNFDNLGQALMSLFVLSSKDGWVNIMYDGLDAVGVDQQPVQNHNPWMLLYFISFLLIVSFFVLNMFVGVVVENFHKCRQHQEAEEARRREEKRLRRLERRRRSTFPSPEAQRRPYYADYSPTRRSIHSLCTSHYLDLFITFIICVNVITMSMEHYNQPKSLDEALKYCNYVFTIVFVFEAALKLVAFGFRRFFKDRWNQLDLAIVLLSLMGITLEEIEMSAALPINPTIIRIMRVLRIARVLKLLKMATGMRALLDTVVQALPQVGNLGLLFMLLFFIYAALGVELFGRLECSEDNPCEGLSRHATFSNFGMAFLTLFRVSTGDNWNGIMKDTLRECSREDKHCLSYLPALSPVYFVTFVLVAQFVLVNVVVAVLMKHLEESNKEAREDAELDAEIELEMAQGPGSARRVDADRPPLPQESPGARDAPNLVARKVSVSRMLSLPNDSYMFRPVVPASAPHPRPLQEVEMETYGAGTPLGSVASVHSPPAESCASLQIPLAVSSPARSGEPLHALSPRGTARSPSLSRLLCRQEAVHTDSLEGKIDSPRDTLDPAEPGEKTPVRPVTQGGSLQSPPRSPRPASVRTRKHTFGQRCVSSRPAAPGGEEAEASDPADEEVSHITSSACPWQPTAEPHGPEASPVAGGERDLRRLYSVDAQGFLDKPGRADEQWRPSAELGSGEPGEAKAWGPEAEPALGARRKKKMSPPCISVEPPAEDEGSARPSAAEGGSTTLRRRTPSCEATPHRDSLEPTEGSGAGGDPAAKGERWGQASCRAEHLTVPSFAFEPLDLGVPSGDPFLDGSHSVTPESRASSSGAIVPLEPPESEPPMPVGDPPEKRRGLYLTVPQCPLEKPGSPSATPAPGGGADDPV
G-protein coupled receptor 35, sequence (Q9HC97 whole entry): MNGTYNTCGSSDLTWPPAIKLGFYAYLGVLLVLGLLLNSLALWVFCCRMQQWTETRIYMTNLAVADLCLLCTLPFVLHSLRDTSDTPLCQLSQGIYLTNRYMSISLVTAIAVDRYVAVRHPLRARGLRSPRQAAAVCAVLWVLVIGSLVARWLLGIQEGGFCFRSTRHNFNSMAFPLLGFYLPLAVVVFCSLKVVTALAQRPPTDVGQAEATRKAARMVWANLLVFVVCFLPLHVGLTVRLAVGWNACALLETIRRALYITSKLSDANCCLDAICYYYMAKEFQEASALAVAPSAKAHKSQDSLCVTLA
Nonstructural protein 1, sequence (Q194T2 whole entry): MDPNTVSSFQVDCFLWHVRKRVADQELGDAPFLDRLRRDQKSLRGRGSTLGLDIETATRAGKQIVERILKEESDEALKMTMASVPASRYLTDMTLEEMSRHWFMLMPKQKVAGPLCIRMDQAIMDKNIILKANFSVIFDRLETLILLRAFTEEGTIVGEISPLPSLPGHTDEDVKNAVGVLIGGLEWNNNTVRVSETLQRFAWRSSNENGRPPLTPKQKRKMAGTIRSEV

With `Cc1ccccc1NC(=O)c1sc2nc3c(c(-c4ccco4)c2c1N)CCCC3` the EC50 [1] was 10.1 µM (active).
With `CCOC(=O)C1CCCN(S(=O)(=O)c2ccc(OC)c3ccccc23)C1` (stereo not drawn) the EC50 [1] was 0.647 µM (active).
With `CN(C)c1ccc(NC(=O)CC(NCc2ccccn2)C(=O)O)cc1` (stereo not drawn) the IC50 (Nonstructural protein 1) was 1.51 µM (active).
In the case of `CCCCc1nc(CN2CCCC(C(=O)c3ccc(SC)cc3)C2)c[nH]1` (stereo not drawn), the EC50 [2] is reported as 1.88 µM (active).
For `O=C(c1cccc(C(=O)N2CCN(c3ccccc3)CC2)c1)N1CCN(c2ccccc2)CC1`, the EC50 [2] was 1.06 µM (active).
With `CCN(CC)c1ccc(/C=C(/C#N)c2nc3ccccc3[nH]2)c(OC(C)C)c1` the EC50 [3] was 11.2 µM (active), the EC50 [4] was 3.96 µM (active) and the EC50 [5] was 11.1 µM (active). For the same compound, the EC50 [6] was 8.13 µM (active), the IC50 [7] was 1.19 µM (active) and the EC50 [1] was 3.84 µM (active).
In the case of `CN(C)CCN(C(=O)C1CCCCC1)c1nc2cc3c(cc2s1)OCO3`, the EC50 [8] is reported as 6.68 µM (active) and the EC50 [2] is reported as 2.66 µM (active).
For `COc1ccc(C(=O)Nc2cc(-c3ccccc3)ccc2C(=O)O)cc1`, the IC50 (Hexokinase) was > 25 µM (inactive).
For `COc1ccc(C(=O)Nc2cc(Cl)ccc2O)cc1`, the IC50 (Hexokinase) was 25 µM (inactive).
For `O=C(Nc1cc(Cl)ccc1C(=O)O)c1ccc(Cc2ccccc2)cc1`, the IC50 (Hexokinase) was 13.6 µM (active).
For `Cc1ccc(S(=O)(=O)Nc2cccc(C(=O)NCC(c3ccco3)N3CCCC3)c2)cc1F` (stereo not drawn), the EC50 [8] was 1.5 µM (active) and the EC50 [2] was 0.149 µM (active).
With `COc1ccc(/C=c2\s/c(=C/C(=O)c3ccc(C)cc3)[nH]c2=O)c(OC)c1` the EC50 [9] was > 99 µM (inactive), the EC50 [10] was 10.7 µM (active) and the EC50 [11] was > 99 µM (inactive). The IC50 [7] was 1.76 µM (active).
With `COc1ccc(NC(=O)c2ccccc2C(=O)O)cc1` the IC50 (Hexokinase) was > 25 µM (inactive).
